Like-named read-outs stand apart in the source and are kept apart here.
Columns and labels:
Mammalian Cathepsin S = Mammalian Cathepsin S (Homo sapiens, UniProt P25774); assay: Ki competitive inhibition, mammalian cathepsin S; type: biochemical
Protocol: (§1) Cathepsin S (Mammalian, murine and rat)
(§2) Assays were performed in 100 mM sodium phosphate, 100 mM NaCl, pH 6.5 (buffer) in white 384 well plates (Coming Costar). Eight inhibitors were assayed per plate.
(§3) Inhibitor dilutions were performed on a 96 well V-bottomed polypropylene plate (Corning Costar). 100 μl of buffer was placed in wells 2-5 and 7-12 of rows A, B, C and D. Sufficient of each inhibitor at 10 mM in DMSO was placed into wells A1-D1 and A6-D6 to give the desired final concentration when the volume in the well was made up to 200 μl with buffer. Column 1 was made up to 200 μl with buffer, mixed by aspirating and dispensing 100 μl in the well, and 100 μl transferred to column 2. The pipette tips were changed and the mixing and transferral repeated to column 5. This process was repeated for columns 6-10.
(§4) Substrate dilutions were performed on a 96 deep well polypropylene plate (Beckman Coulter). 280 μl of buffer was placed in wells B-H of columns 1 and 2.70 μl of 10 mM boc-Val-Leu-Lys-AMC was placed in A1 and A2. 2×250 μl of buffer was added to wells A1 and A2, mixed by aspirating and dispensing 280 μl in the well, and 280 μl transferred to row B. The pipette tips were changed and the process repeated down the plate to row H.
(§5) Column 1 of the substrate dilution plate was distributed at 10 μl per well into alternate rows beginning at row A. Column 2 was distributed to alternate rows beginning at row B. Row A of the inhibitor dilution plate was distributed at 10 μl per well to alternate rows and columns starting at A1. Row B was distributed to alternate rows and columns starting at A2. Row C was distributed to alternate rows and columns starting at B1 and row D was distributed to alternate rows and columns starting at B2. The assay was started by the addition of 30 μl per well of 20 nM cathepsin S in buffer containing 10 mM 2-mercaptoethanol.
(§6) Data were saved as text files and imported into Excel. The initial rates were determined by linear regression and then fitted to the competitive inhibition equation using SigmaPlot.

Murine Cathepsin S = Murine Cathepsin S (Mus musculus, UniProt O70370); assay: Ki competitive inhibition, murine cathepsin S; type: biochemical
Protocol: as §1, §2, §3, §4, §5, §6

Mammalian Cathepsin L = Mammalian Cathepsin L (Homo sapiens, UniProt P07711); assay: Ki competitive inhibition, cathepsin L; type: biochemical
Protocol: as §6
(§7) Assays were performed essentially as above. For cathepsin L, the buffer used was 100 mM sodium acetate, 1 mM EDTA, pH 5.5 and the substrate was D-Val-Leu-Lys-AMC with a highest concentration of 100 μM. For cathepsin K, the buffer used was 100 mM MES/Tris, 1 mM EDTA, pH 7.0 and the substrate was D-Ala-Leu-Lys-AMC with a highest concentration of 250 μM.

Rat Cathepsin S = Rat Cathepsin S (Rattus norvegicus, UniProt Q02765); assay: Ki competitive inhibition, rat cathepsin S; type: biochemical
Protocol: as §1, §2, §3, §4, §5, §6

Mammalian Cathepsin K = target: T1, Mammalian Cathepsin K (Homo sapiens, UniProt P43235); assay: Ki competitive inhibition, cathepsin K; type: biochemical
T1 sequence (P43235 115-329): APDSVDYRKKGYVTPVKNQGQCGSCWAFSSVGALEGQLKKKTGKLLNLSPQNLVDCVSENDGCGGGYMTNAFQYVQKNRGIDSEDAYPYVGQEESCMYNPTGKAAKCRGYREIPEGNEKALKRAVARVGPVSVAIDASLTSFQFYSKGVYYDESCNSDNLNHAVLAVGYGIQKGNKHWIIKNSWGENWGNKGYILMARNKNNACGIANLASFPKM
Protocol: as §7
Convenient assays for cathepsin K arere carried out using human recombinant enzyme. Standard assay conditions for the determination of kinetic constants used a fluorogenic peptide substrate, typically H-D-Ala-Leu-Lys-AMC, and were determined in either 100 mM Mes/Tris, pH 7.0 containing 1 mM EDTA and 10 mM 2-mercaptoethanol or 100 mM Na acetate, pH 5.5 containing 5 mM EDTA and 20 mM cysteine. The enzyme concentration used was 5 nM. The stock substrate solution was prepared at 10 mM in DMSO. Screens were carried out at a fixed substrate concentration of 60 μM and detailed kinetic studies with doubling dilutions of substrate from 250 μM. The total DMSO concentration in the assay was kept below 3%. All assays were conducted at ambient temperature. Product fluorescence (excitation at 390 nm, emission at 460 nm) was monitored with a Labsystems Fluoroskan Ascent fluorescent plate reader. Product progress curves were generated over 15 minutes following generation of AMC product.
Potential inhibitors are screened using the above assay with variable concentrations of test compound. Reactions were initiated by addition of enzyme to buffered solutions of substrate and inhibitor. Ki values were calculated according to equation 1 [formula] where ν0 is the velocity of the reaction, V is the maximal velocity, S is the concentration of substrate with Michaelis constant of KM, and I is the concentration of inhibitor. Determination of Falcipain 2 Proteolytic Catalytic Activity

[1] = Oral bioavailability in mice; conditions: mouse, in vivo, dosed i.v. and orally at 10 mg/kg to mice, read-out: oral bioavailability % (F)
[2] = Table 1, first line of each CAP-P2 block, read-out: Ki competitive inhibition measurements vs Mammalian Cathepsin S
[3] = Table 2, Human, read-out: Ki (μM) Human, Mammalian Cathepsin S
[4] = Table 1, second line of each CAP-P2 block, read-out: Ki competitive inhibition measurements vs Mammalian Cathepsin L
[5] = Table 2, Mouse, read-out: Ki (μM) Mouse, Murine Cathepsin S
[6] = Table 2, Rat, read-out: Ki (μM) Rat, Rat Cathepsin S
[7] = Table 1, third line of each CAP-P2 block, read-out: Ki competitive inhibition measurements vs Mammalian Cathepsin K

Sequence of Rat Cathepsin S (Q02765 113-330): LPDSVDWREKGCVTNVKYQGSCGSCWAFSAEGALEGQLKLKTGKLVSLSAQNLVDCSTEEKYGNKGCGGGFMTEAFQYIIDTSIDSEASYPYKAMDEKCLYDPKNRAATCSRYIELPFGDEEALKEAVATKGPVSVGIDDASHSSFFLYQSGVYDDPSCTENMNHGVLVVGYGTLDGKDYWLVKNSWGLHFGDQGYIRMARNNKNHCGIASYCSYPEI
Sequence of Mammalian Cathepsin L (P07711 114-333): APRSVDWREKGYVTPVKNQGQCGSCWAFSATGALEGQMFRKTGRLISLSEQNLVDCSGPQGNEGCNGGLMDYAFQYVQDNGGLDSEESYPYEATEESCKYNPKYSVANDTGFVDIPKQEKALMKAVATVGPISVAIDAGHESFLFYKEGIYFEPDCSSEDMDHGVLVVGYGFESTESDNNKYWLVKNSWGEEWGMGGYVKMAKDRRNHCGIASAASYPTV
Sequence of Mammalian Cathepsin S (P25774 115-331): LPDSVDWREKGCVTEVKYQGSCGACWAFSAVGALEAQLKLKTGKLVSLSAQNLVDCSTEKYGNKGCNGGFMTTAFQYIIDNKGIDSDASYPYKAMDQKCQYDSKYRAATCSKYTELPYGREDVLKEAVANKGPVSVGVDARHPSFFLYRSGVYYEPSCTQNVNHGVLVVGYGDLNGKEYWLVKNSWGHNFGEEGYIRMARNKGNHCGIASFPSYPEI

Structure (SMILES)	Ki (Mammalian Cathepsin S; [2])	Ki (Mammalian Cathepsin S; [3])	Ki (Mammalian Cathepsin S; read-out: Ki mammalian cath S)	Ki (Murine Cathepsin S; read-out: Ki murine cath S)	Ki (Mammalian Cathepsin L; [4])	Ki (Mammalian Cathepsin L; read-out: Ki cathepsin L)	Ki (Rat Cathepsin S; read-out: Ki rat cath S)	Ki (Mammalian Cathepsin K; read-out: Ki cathepsin K)	bioavailability [1]	Ki (Murine Cathepsin S; [5])	Ki (Rat Cathepsin S; [6])	Ki (Mammalian Cathepsin K; [7])
CC[C@@H]1OCC(=O)[C@H]1NC(=O)[C@H](CC(C)(C)C(C)C)NC(=O)c1ccoc1 [CAP8-Hybrid3/drawing 68, Furan-3-carboxylic acid[3,3,4-trimethyl-1S-(2S-ethyl-4-oxo-tetrahydrofuran-3-ylcarbamoyl)pentyl]amide]	0.015 µM	0.015 µM	0.015 µM	0.149 µM	> 100000 nM	> 100000 nM	0.271 µM	5500 nM				
C[C@@H]1OCC(=O)[C@H]1NC(=O)[C@H](CC(C)(C)C)NC(=O)c1ccoc1 [CAP8-L-tBu-Ala/drawing 71, Furan-3-carboxylic acid[3,3-dimethyl-1S-(2S-methyl-4-oxo-tetrahydrofuran-3S-ylcarbamoyl)butyl]amide]	0.1 µM	0.13 µM			> 100000 nM				58%	0.1 µM	0.211 µM	7300 nM
CCn1nc(C)cc1C(=O)N[C@@H](CC(C)C)C(=O)N[C@@H]1C(=O)CO[C@@H]1C [CAP10-L-Leu/drawing 69]	1.3 µM				710 nM							3000 nM
CC1OCC(=O)C1NC(=O)C(CC(C)(C)C)NC(=O)c1ccsc1 [CAP11-L-tBu-Ala/drawing 71]	0.095 µM	0.095 µM			55200 nM					0.048 µM	0.084 µM	1550 nM
CC[C@@H]1OCC(=O)[C@H]1NC(=O)[C@H](CC(C)(C)C)NC(=O)c1ccoc1 [drawing 79/drawing 78 X = O]		0.053 µM								0.039 µM	0.058 µM	

The next lines start with the values.

Ki (Mammalian Cathepsin S; [2])	Ki (Mammalian Cathepsin S; [3])	Ki (Mammalian Cathepsin S; read-out: Ki mammalian cath S)	Ki (Murine Cathepsin S; read-out: Ki murine cath S)	Ki (Mammalian Cathepsin L; [4])	Ki (Mammalian Cathepsin L; read-out: Ki cathepsin L)	Ki (Rat Cathepsin S; read-out: Ki rat cath S)	Ki (Mammalian Cathepsin K; read-out: Ki cathepsin K)	bioavailability [1]	Ki (Murine Cathepsin S; [5])	Ki (Rat Cathepsin S; [6])	Ki (Mammalian Cathepsin K; [7])	Structure (SMILES)
0.34 µM				460 nM							> 100000 nM	CCn1nc(C)cc1C(=O)N[C@@H](Cc1ccc(O)cc1)C(=O)N[C@H]1C(=O)CO[C@H]1C [CAP10-L-Tyr/drawing 70]
4.1 µM				450 nM							> 100000 nM	CCn1nc(C)cc1C(=O)N[C@@H](Cc1ccc(O)cc1)C(=O)N[C@@H]1C(=O)CO[C@H]1C [CAP10-L-Tyr/drawing 71]
3.7 µM				100 nM							> 100000 nM	CCn1nc(C)cc1C(=O)NC(Cc1ccc(O)cc1)C(=O)NC1COCC1=O [CAP10-L-Tyr/drawing 72]
3.7 µM				100 nM							> 100000 nM	CCn1nc(C)cc1C(=O)N[C@@H](Cc1ccc(O)cc1)C(=O)N[C@@H]1COCC1=O [CAP10-L-Tyr/drawing 73]
